Data published in patent US20260174692A1, “AEROSOL COMPOSITION” (UPyTher B.V., priority 2023, published 2026).
Each block holds one molecule with its values, some of them ahead of it.

Legend:
[1] = In vitro release of TLR-agonists from hydrogel; type: physicochemical; details: 6 and 10 wt. % hydrogel formulations; ammonium carbonate buffer
Procedure: The TLR-agonist resiquimod (synonym R848) was loaded from a stock solution (50 mM in DMSO) to 1.27 mM in the hydrogel. The TLR-agonist telratolimod (synonym MEDI9197) was loaded from a stock solution (10 mM in DMSO) to 0.5 mM in the hydrogel.
The drug loaded solution (100 μL) was transferred to a Millicell insert, which was placed in a 24-wells plate filled with PBS pH 7.4 (700 μL). At set time points the PBS was refreshed and the removed PBS was analyzed for R848 content UV absorbance at 320 nm. For MEDI9197, PBS was substituted for a volatile ammonium carbonate buffer and a HPLC-MS method was used. Release experiments were performed with n=3.

[2] = cited from earlier work
[3] = In vitro release of ipilimumab from hydrogel; type: physicochemical; details: 10 wt % UPy-PEG10k hydrogel; PBS pH 7.4
Procedure: The monoclonal antibody ipilimumab was loaded from a stock solution ([…] in PBS) to 3 μg/μl in the hydrogel. The drug loaded solution (50 μL) was transferred to 96-wells filter plate filled with PBS pH 7.4 (250 μL). At set time points the PBS was refreshed and the removed PBS was analyzed for antibody content with a Fortebio Octet interferometer.

release rate from hydrogel [1]: released slower than MMC
Molecule: CCCCCCCCCCCCCCCCCC(=O)NCCCCOn1c(CCCC)nc2c(N)nc3ccccc3c21 [MEDI9197, telratolimod]

Molecule: O=C1[O][Pt]2([NH][C@@H]3CCCC[C@H]3[NH]2)[O]C1=O [oxaliplatin]
Cmax, ePIPAC ([2]; administered by ePIPAC): 2670 to 3280 ng/mL
AUCmax, systemic ([2]; after systemic chemotherapy): 51400 to 118000 ng·h/mL
Cmax, systemic ([2]; after systemic chemotherapy): 1610 to 1920 ng/mL

Molecule: ipilimumab: monoclonal antibody, checkpoint inhibitor (CTLA-4), loaded to 3 μg/μl in the hydrogel
duration of antibody release [3]: released for multiple weeks
